Assay results: US6592834B1, “Calcium hydroxide, a process for the production thereof and use thereof” (Kabushiki Kaisha Kaisui Kagaku Kenkyujo, priority 1999, dated 2003)

Test: Thermal stability test of polyvinyl chloride sheet in Geer oven at 185° C. (Example 7 composition)
Experimental: A heat stabilizer (acid-capturing agent) shown in Table 3 was mixed with the above components other than the heat stabilizer in the above amounts, and the mixture was uniformly mixed. Then, it was kneaded with an open roll for 3 minutes at 180° C., to prepare a sheet having a thickness of about 1 mm. The sheet was placed in a Geer oven set at 185° C., and it was estimated for a thermal stability. […] Concerning properties required for the heat stabilizer, the heat stabilizer was required to be nonpoisonous and a low price, to have good dispersibility, to be almost free from coloration, and to give a long period of time before blackening.
In Example 7, the calcium hydroxide of the present invention as a heat stabilizer was replaced with a calcium hydroxide obtained by surface-treating a commercially available calcium hydroxide used in Comparative Example 1 (5-1), lead stearate (5-2), and A type zeolite (5-3). These cases were estimated.

A type zeolite [5-3]
Thermal stability (period of time taken until the sheet was blackened): 40 min
